In patent US20060100431A1, “Biologically active compounds” (Amura Therapeutics Limited, priority 2002, published 2006):
Read-outs that look alike come from different tables or passages of the source.

Experiments:
[1] = target: Wild-type cruzipain (Trypanosoma cruzi, UniProt P25779); test: Trypanosoma cruzi cruzipain peptidase activity assay (Ki); type: biochemical
In short: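 Native cruzipain from T. cruzi Dm28 epimastigotes, 2.5 nM, in 100 mM sodium phosphate pH 6.75 with 1 mM EDTA and 10 mM L-cysteine, 25 °C, DMSO <1%. Rates taken from continuous fluorogenic substrate read; Ki by regression assuming reversible pure-competitive inhibition.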

[2] = target: T1, human cathepsin B (Homo sapiens, UniProt P07858); test: Cathepsin B peptidase activity assay (Ki); type: biochemical; conditions: read-out: Ki, inhibitors of cathepsin B
T1 construct: purchased CN Biosciences
In short: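 Buffer: 10 mM bis-tris-propane pH 6.5, 1 mM EDTA, 5 mM 2-mercaptoethanol, 1 mM CaCl2; DMSO <1%. Ki assumed reversible, pure-competitive, from Ki^app=Ki(1+[So]/KM^app) by non-linear regression.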

[3] = Table 5, read-out: Ki Cruzipain
[4] = read-out: Ki, inhibitors of cruzain and cruzipains

Wild-type cruzipain, sequence (P25779 whole entry): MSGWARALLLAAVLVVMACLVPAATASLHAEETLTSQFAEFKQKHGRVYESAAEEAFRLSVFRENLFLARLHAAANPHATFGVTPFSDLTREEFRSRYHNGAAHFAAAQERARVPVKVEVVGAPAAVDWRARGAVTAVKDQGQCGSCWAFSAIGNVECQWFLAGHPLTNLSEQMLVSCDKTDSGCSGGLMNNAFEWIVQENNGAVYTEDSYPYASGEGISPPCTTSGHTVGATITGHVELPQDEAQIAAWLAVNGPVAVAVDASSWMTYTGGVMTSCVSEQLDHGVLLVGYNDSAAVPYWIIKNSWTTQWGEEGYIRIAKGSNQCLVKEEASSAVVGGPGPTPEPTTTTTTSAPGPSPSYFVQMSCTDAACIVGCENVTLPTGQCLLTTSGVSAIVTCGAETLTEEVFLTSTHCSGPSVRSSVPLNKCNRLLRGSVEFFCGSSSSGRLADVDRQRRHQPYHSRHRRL

| Compound | Ki [1, 3] | Ki [1, 4] | Ki [2] |
| --- | --- | --- | --- |
| CC(C)C[C@H](NC(=O)c1ccc(-c2cccs2)cc1)C(=O)N1CC[C@@H]2[C@H]1C(=O)CN2C(=O)c1ccccc1 [Example 2, (3aR,6aS)-N-[(1S)-1-(4-Benzoyl-6-oxo-hexahydro-pyrrolo[3,2-b]pyrrole-1-carbonyl)-3-methyl-butyl]-4-thiophen-2-yl-benzamide] | > 0.3 µM | < 5 µM | < 5 µM |
| CC(C)C[C@H](NC(=O)c1cc2ccccc2s1)C(=O)N1CC[C@@H]2[C@H]1C(=O)CN2C(=O)c1ccccc1 [Example 7, (3aR,6aS)-Benzo[b]thiophene-2-carboxylic acid [(1S)-1-(4-benzoyl-6-oxo-hexahydro-pyrrolo[3,2-b]pyrrole-1-carbonyl)-3-methyl-butyl]-amide] | – | < 5 µM | < 5 µM |
| CC(C)C[C@H](NC(=O)c1ccc(N(C)C)cc1)C(=O)N1CC[C@@H]2[C@H]1C(=O)CN2C(=O)c1ccccc1 [Example 14, (3aR,6aS)-N-[(1S)-1-(4-Benzoyl-6-oxo-hexahydro-pyrrolo[3,2-b]pyrrole-1-carbonyl)-3-methyl-butyl]-4-dimethylamino-benzamide] | – | < 5 µM | < 5 µM |
| CC(C)C[C@H](NC(=O)c1cccc(N(C)C)c1)C(=O)N1CC[C@@H]2[C@H]1C(=O)CN2C(=O)c1cccc(S(C)(=O)=O)c1 [Example 59, (3aR,6aS)-3-Dimethylamino-N-{(1S)-1-[4-(3-methanesulfonyl-benzoyl)-6-oxo-hexahydro-pyrrolo[3,2-b]pyrrole-1-carbonyl]-3-methyl-butyl}-benzamide] | – | < 5 µM | < 5 µM |
| CC(C)C[C@H](NC(=O)c1ccc2c(c1)CCCN2)C(=O)N1CC[C@@H]2[C@H]1C(=O)CN2C(=O)c1ccccc1 [Example 87, (3aR,6aS)-1,2,3,4-Tetrahydro-quinoline-6-carboxylic acid [(1S)-1-(4-benzoyl-6-oxo-hexahydro-pyrrolo[3,2-b]pyrrole-1-carbonyl)-3-methyl-butyl]-amide] | – | < 5 µM | < 5 µM |
| CC(C)C[C@H](NC(=O)c1ccc2ncsc2c1)C(=O)N1CC[C@@H]2[C@H]1C(=O)CN2C(=O)c1ccccc1 [Example 90, (3aR,6aS)-Benzothiazole-6-carboxylic acid [(1S)-1-(4-benzoyl-6-oxo-hexahydro-pyrrolo[3,2-b]pyrrole-1-carbonyl)-3-methyl-butyl]-amide] | – | < 5 µM | < 5 µM |
| CC(C)C[C@H](NC(=O)c1ccc(-n2cccn2)cc1)C(=O)N1CC[C@@H]2[C@H]1C(=O)CN2C(=O)c1ccccc1 [Example 91, (3aR,6aS)-N-[(1S)-1-(4-Benzoyl-6-oxo-hexahydro-pyrrolo[3,2-b]pyrrole-1-carbonyl)-3-methyl-butyl]-4-pyrazol-1-yl-benzamide] | – | < 5 µM | < 5 µM |
| CC(C)C[C@H](NC(=O)c1ccc(N(C)C)cc1)C(=O)N1CC[C@@H]2[C@H]1C(=O)CN2C(=O)c1csc2ccccc12 [Example 103, (3aR,6aS)-N-{(1S)-1-[4-(Benzo[b]thiophene-3-carbonyl)-6-oxo-hexahydro-pyrrolo[3,2-b]pyrrole-1-carbonyl]-3-methyl-butyl}-4-dimethylamino-benzamide] | – | < 5 µM | < 5 µM |
| CC(=O)N[C@@H](CC(C)C)C(=O)N1CC(=O)[C@@H]2[C@H]1CCN2C(=O)[C@H](CC(C)C)NC(=O)c1ccc(N(C)C)cc1 [Example 151, (3aR,6aS)-N-{(1S)-1-[4-((2S)-2-Acetylamino-4-methyl-pentanoyl)-6-oxo-hexahydro-pyrrolo[3,2-b]pyrrole-1-carbonyl]-3-methyl-butyl}-4-dimethylamino-benzamide] | – | < 5 µM | < 5 µM |
| CC(C)C[C@H](NC(=O)c1ccc(N(C)C)cc1)C(=O)N1CC[C@@H]2[C@H]1C(=O)CN2C(=O)[C@@H](NC(=O)OCc1ccccc1)C(C)C [Example 158, (3aS,6aR)-((S)-1-{4-[(2S)-2-(4-Dimethylamino-benzoylamino)-4-methyl-pentanoyl]-3-oxo-hexahydro-pyrrolo[3,2-b]pyrrole-1-carbonyl}-2-methyl-propyl)-carbamic acid benzyl ester] | – | < 5 µM | < 5 µM |
| CC(C)C[C@H](NC(=O)c1ccc(OC(F)(F)F)cc1)C(=O)N1CC[C@@H]2[C@H]1C(=O)CN2C(=O)c1ccccc1 [Example 173, (3aR,6aS)-N-[(1S)-1-(4-Benzoyl-6-oxo-hexahydro-pyrrolo[3,2-b]pyrrole-1-carbonyl)-3-methyl-butyl]-4-trifluoromethoxy-benzamide] | – | < 5 µM | < 5 µM |
| CC(C)C[C@H](NC(=O)c1ccc(N2CCNCC2)cc1)C(=O)N1CC[C@@H]2[C@H]1C(=O)CN2C(=O)c1ccccc1 [Example 194, (3aR,6aS)-N-[(1S)-1-(4-Benzoyl-6-oxo-hexahydro-pyrrolo[3,2-b]pyrrole-1-carbonyl)-3-methyl-butyl]-4-piperazin-1-yl-benzamide] | – | < 5 µM | < 5 µM |
| CC(C)C[C@H](NC(=O)c1cccc(N2CCNCC2)c1)C(=O)N1CC[C@@H]2[C@H]1C(=O)CN2C(=O)c1ccccc1 [Example 247, (3aR,6aS)-N-[(1S)-1-(4-Benzoyl-6-oxo-hexahydro-pyrrolo[3,2-b]pyrrole-1-carbonyl)-3-methyl-butyl]-3-piperazin-1-yl-benzamide] | – | < 5 µM | < 5 µM |
| CC(C)C[C@H](NC(=O)c1ccc(C(C)(C)C)cc1)C(=O)N1NC[C@@H]2[C@H]1C(=O)CN2C(=O)c1ccccc1 [Example 249a, (3aR,6aS)-N-[(1S)-1-(4-benzoyl-6-oxo-hexahydropyrrolo[3,2-c]pyrazole-1-carbonyl)-3-methylbutyl]-4-tert-butylbenzamide] | – | < 5 µM | < 5 µM |
| CC(C)CC(NC(=O)c1ccc(N)cc1)C(=O)N1NC[C@@H]2[C@H]1C(=O)CN2C(=O)c1ccccc1 (stereo partly drawn) [Example 249b, (3aR,6aS)-4-amino-N-[1-(4-benzoyl-6-oxo-hexahydropyrrolo[3,2-c]pyrazole-1-carbonyl)-3-methylbutyl)benzamide] | – | < 5 µM | < 5 µM |
| CC(C)C[C@H](NC(=O)c1ccc(N)cc1)C(=O)N1NC[C@@H]2[C@H]1C(=O)CN2C(=O)c1cccc(S(C)(=O)=O)c1 [Example 249c, (3aR,6aS)-4-amino-N-{(1S)-1-[4-(3-methanesulfonylbenzoyl)-6-oxo-hexahydropyrrolo [3,2-c]pyrazole-1-carbonyl]-3-methylbutyl}benzamide] | – | < 5 µM | < 5 µM |
| O=C(N[C@@H](CC1CCCCC1)C(=O)N1CC[C@@H]2[C@H]1C(=O)CN2C(=O)c1ccccc1)c1ccsc1 [Example 250, (3aR,6aS)-Thiophene-3-carboxylic acid [(1S)-2-(4-benzoyl-6-oxo-hexahydro-pyrrolo[3,2-b]pyrrole-1-yl)-1-cyclohexylmethyl-2-oxo-ethyl]-amide] | > 5 µM | – | – |
| O=C(N[C@@H](Cc1ccc(O)cc1)C(=O)N1CC[C@@H]2[C@H]1C(=O)CN2C(=O)c1ccccc1)c1cccc2ccccc12 [Example 296, (3aR,6aS)-Naphthalene-1-carboxylic acid [(1S)-2-(4-benzoyl-6-oxo-hexahydro-pyrrolo[3,2-b]pyrrole-1-yl)-1-(4-hydroxybenzyl)-2-oxo-ethyl]-amide] | > 1 µM | < 5 µM | < 5 µM |
| CC(C)(C)c1ccc(C(=O)N[C@@H](Cc2ccc(O)cc2)C(=O)N2CC[C@@H]3[C@H]2C(=O)CN3C(=O)c2ccccc2)cc1 [Example 346, (3aR,6aS)-N-[(1S)-2-(4-Benzoyl-6-oxo-hexahydro-pyrrolo[3,2-b]pyrrol-1-yl)-1-(4-hydroxybenzyl)-2-oxo-ethyl]-4-tert-butyl-benzamide] | < 0.2 µM | – | – |
